# From BindingDB's records for doi:10.1111/cbdd.12826 (Universidade De Lisboa, 2016)
# Where a name gives a salt, the structure may show the parent alone.
# Molecular target: DNA-(apurinic or apyrimidinic site) endonuclease (Homo sapiens, UniProt P27695)
# Assay: Fluorescence-Based APE1 Endonuclease Activity Assay
# Conditions: pH 7.5
# Method: In this assay, the complementary single-stranded oligonucleotides at […] were mixed at a 1:1 ratio and annealed in assay buffer (50 mm Tris pH 7.5, 25 mm NaCl, 2 mm MgCl2, 1 mm DTT, 0.01% Tween-20) at 95 °C for 5 min to generatethe double-stranded substrate of APE1.[A. Simeonov, A. Kulkarni, D. Dorjsuren, A. Jadhav, M. Shen, D. R. McNeill, C. P. Austin, D. M. Wilson 3rd, PLoS ONE 2009, 4, p. e5740.] After the annealing, the reaction mixture was allowed to cool to room temperature. The assay was carried out in 96-well black plates with flat bottom (Costar, Corning Inc., NY, USA) at a finalreaction volume of 100 μL. The reaction mixtures containing 2.5 U of human recombinant APE1 (6 μL) (New England Biolabs, Ipswich, MA, USA) were incubated in the assay buffer abovementioned, in the absence or presence of the putative APE1 inhibitors (5 μL), at room temperature for 15 min. The reaction was initiated by the addition of double-stranded substrate (6 μL) to obtain the final concentration of 250 nm. DMSO was maintained at a concentration of 0.5% (v/v) in all assays (negative control). Fluorescence readings were acquired at 1-min intervals over an incubation period of 30 min at 37 °C using a SpectraMax Gemini EM microplate plate reader (Molecular Devices, Berkshire, UK) in the kinetic mode at excitation wavelength 550 nm, emission wavelength 584 nm, and cutoff at 570 nm.
# Chain of DNA-(apurinic or apyrimidinic site) endonuclease (P27695 whole entry): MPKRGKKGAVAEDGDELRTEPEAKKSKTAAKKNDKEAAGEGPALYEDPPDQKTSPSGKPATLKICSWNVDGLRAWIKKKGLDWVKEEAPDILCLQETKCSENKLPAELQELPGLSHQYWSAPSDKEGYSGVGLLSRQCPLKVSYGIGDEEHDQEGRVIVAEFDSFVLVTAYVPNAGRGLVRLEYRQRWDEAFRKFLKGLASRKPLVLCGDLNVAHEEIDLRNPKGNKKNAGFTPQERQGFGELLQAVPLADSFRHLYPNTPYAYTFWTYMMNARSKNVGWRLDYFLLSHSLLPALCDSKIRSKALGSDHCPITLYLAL
row,SMILES,IC50 [µM]
1,Nc1ccc2cc(S(=O)(=O)O)cc(O)c2c1/N=N/c1ccc([N+](=O)[O-])cc1S(=O)(=O)O [6-amino-4-hydroxy-5-[(4-nitro-2-sulfophenyl)azo]-2-naphtalenesulfonic acid disodium salt (Compound 37)],7.76
2,Nc1ccc(/N=N/c2c(N)ccc3cc(S(=O)(=O)O)cc(O)c23)c(S(=O)(=O)O)c1 [6-amino-5-[(4-amino-2-sulfophenyl)azo]-4-hydroxy-2-naphtalenesulfonic acid disodium salt (Compound 41)],8.85
3,CC(=O)Nc1ccc(/C=C/c2ccc(N=C=S)c(S(=O)(=O)O)c2)c(S(=O)(=O)O)c1 [(5-(acetylamino)-2-[2-(4-isothiocyanato-3-sulfophenyl)ethenyl]benzenesulfonic acid disodium salt (Compound 22)],0.25
